We go through two molecules from ChEMBL document CHEMBL1151766, “Engineering stabilized vascular endothelial growth factor-A antagonists: synthesis, structural characterization, and bioactivity of grafted analogues of cyclotides” (J Med Chem, 2008).

A short description of series [1]: Toxicity in human erythrocytes assessed as hemolytic activity at 50 uM. It is filed as cell-based, Erythrocyte. As to conditions: read-out: Activity.
Series [2] concerns BaF3. In words: Cytotoxicity against VEGF-A induced mouse BAF3-VEGF-R2 cells at >10 uM. It is filed as functional, cell-based.

Regarding `CC(C)C[C@@H]1NC(=O)CNC(=O)[C@H](CC(N)=O)NC(=O)[C@H](CCCNC(=N)N)NC(=O)[C@H]([C@@H](C)O)NC(=O)[C@@H]2CSSC[C@@H]3NC(=O)[C@H]([C@@H](C)O)NC(=O)CNC(=O)CNC(=O)[C@H](C(C)C)NC(=O)[C@@H]4CSSC[C@H](NC(=O)[C@H]([C@@H](C)O)NC(=O)[C@H](CSSC[C@H](NC(=O)[C@H](C(C)C)NC(=O)[C@@H]5CCCN5C1=O)C(=O)NCC(=O)N[C@@H](CCC(=O)O)C(=O)N[C@@H]([C@@H](C)O)C(=O)N4)NC(=O)CNC(=O)[C@@H]1CCCN1C(=O)[C@H]([C@@H](C)O)NC(=O)[C@H](CC(N)=O)NC3=O)C(=O)N[C@@H](CO)C(=O)N[C@@H](Cc1c[nH]c3ccccc13)C(=O)N1CCC[C@H]1C(=O)N[C@@H](C(C)C)C(=O)N2` [KALATA B1], the hemolysis at 50 µM in series [1] is 50%.
`CC(C)C[C@@H]1NC(=O)CNC(=O)[C@H](CC(N)=O)NC(=O)[C@H](CCCNC(=N)N)NC(=O)[C@H]([C@@H](C)O)NC(=O)[C@H](CS)NC(=O)[C@H](C(C)C)NC(=O)[C@@H]2CCCN2C(=O)[C@H](CCC(=O)O)NC(=O)[C@H](CO)NC(=O)[C@H](CS)NC(=O)[C@H]([C@@H](C)O)NC(=O)[C@H](CS)NC(=O)CNC(=O)[C@@H]2CCCN2C(=O)[C@H]([C@@H](C)O)NC(=O)[C@H](CC(N)=O)NC(=O)[C@H](CS)NC(=O)[C@H]([C@@H](C)O)NC(=O)CNC(=O)CNC(=O)[C@H](C(C)C)NC(=O)[C@H](CS)NC(=O)[C@H]([C@@H](C)O)NC(=O)[C@H](CCC(=O)O)NC(=O)CNC(=O)[C@H](CS)NC(=O)[C@H](C(C)C)NC(=O)[C@@H]2CCCN2C1=O`: the Activity entry in series [2] was “Toxic”.
